Test results from patent US20220047569A1, “METHOD AND COMPOUND FOR USE, IN TREATING AND/OR PREVENTING NETOSIS” (Jubilant EpiPad LLC, priority 2020, published 2022).

System: Histone H3 Citrullination in Neutrophils
Test: Citrullination ELISA (Citrullinated Histone H3) in calcium ionophore stimulated neutrophils
Assay type: cell-based
Details: Neutrophil; human neutrophils, 25 μM calcium ionophore, CitH3 ELISA
Procedure, shortened: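 Freshly isolated human donor neutrophils in RPMI with 2% BSA and 1 mM CaCl2 were pre-incubated 30 min with compound (10, 1, 0.1 μM), then stimulated 30 min with 25 μM calcium ionophore. After S7 nuclease digestion, lysates were assayed by citrullinated histone H3 ELISA (450 nm); IC50 from sigmoidal fits.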

IC50: 100 to 1000 nM
SMILES: N[C@@H]1CCCN(C(=O)c2cc3c4c(c2)nc(-c2cc5cccc(Cl)c5n2CC2CC2)n4CCO3)C1 [Compound 143, (R)-(3-aminopiperidin-1-yl)(2-(7-chloro-1-(cyclopropylmethyl)-1H-indol-2-yl)-3,4-dihydro-5-oxa-1,2a-diazaacenaphthylen-7-yl)methanone]
